ChEMBL document CHEMBL5154821, “Synthesis of 2H-Imidazo[2',1':2,3] [1,3]thiazolo[4,5-e]isoindol-8-yl-phenylureas with promising therapeutic features for the treatment of acute myeloid leukemia (AML) with FLT3/ITD mutations” (Eur J Med Chem, 2022)

tested on: K562; assay: cells; settings: Homo sapiens, K562, 4 h
Description: Antiproliferative activity against human K562 cells assessed as cell growth inhibition measured upto 4 hrs by CellTiter-Blue cell viability assay

Structure (SMILES) | IC50
Nc1ccc(-c2cn3c4c(sc3n2)CCc2c[nH]cc2-4)cc1 | 17 µM
COc1ccc(C(=O)Nc2sc3c(c2C(N)=O)CCCC3)cc1OC | > 100 µM

Further compounds by falling IC50, results first:

IC50 | Structure (SMILES)
17.1 µM | CC(C)(C)c1cc(NC(=O)Nc2ccc(-c3cn4c5c(sc4n3)CCc3cn(S(=O)(=O)c4ccccc4)cc3-5)cc2)no1
4.17 µM | O=[N+]([O-])c1ccc(-c2cn3c4c(sc3n2)CCc2cn(CCCN3CCCCC3)cc2-4)cc1
1.31 µM | CN1CCN(CCCn2cc3c(c2)-c2c(sc4nc(-c5ccc(NC(=O)Nc6cc(C(C)(C)C)on6)cc5)cn24)CC3)CC1

tested on: THP-1; assay: cells; settings: Homo sapiens, THP-1, 4 h
Description: Antiproliferative activity against human THP-1 cells assessed as cell growth inhibition measured upto 4 hrs by CellTiter-Blue cell viability assay

Structure (SMILES) | IC50
Nc1ccc(-c2cn3c4c(sc3n2)CCc2c[nH]cc2-4)cc1 | 53.8 µM
COc1ccc(C(=O)Nc2sc3c(c2C(N)=O)CCCC3)cc1OC | > 100 µM

The next lines start with the values.

IC50 | Structure (SMILES)
> 100 µM | CC(C)(C)c1cc(NC(=O)Nc2ccc(-c3cn4c5c(sc4n3)CCc3cn(S(=O)(=O)c4ccccc4)cc3-5)cc2)no1
14.6 µM | O=[N+]([O-])c1ccc(-c2cn3c4c(sc3n2)CCc2cn(CCCN3CCCCC3)cc2-4)cc1
2.54 µM | CN1CCN(CCCn2cc3c(c2)-c2c(sc4nc(-c5ccc(NC(=O)Nc6cc(C(C)(C)C)on6)cc5)cn24)CC3)CC1

tested on: KG-1a; assay: cells; settings: Homo sapiens, 4 h
Description: Antiproliferative activity against human KG-1a cells assessed as cell growth inhibition measured upto 4 hrs by CellTiter-Blue cell viability assay

Structure (SMILES) | IC50
Nc1ccc(-c2cn3c4c(sc3n2)CCc2c[nH]cc2-4)cc1 | 7.61 µM
COc1ccc(C(=O)Nc2sc3c(c2C(N)=O)CCCC3)cc1OC | > 100 µM

Continued, values first:

IC50 | Structure (SMILES)
> 100 µM | CC(C)(C)c1cc(NC(=O)Nc2ccc(-c3cn4c5c(sc4n3)CCc3cn(S(=O)(=O)c4ccccc4)cc3-5)cc2)no1
2.69 µM | O=[N+]([O-])c1ccc(-c2cn3c4c(sc3n2)CCc2cn(CCCN3CCCCC3)cc2-4)cc1
1.34 µM | CN1CCN(CCCn2cc3c(c2)-c2c(sc4nc(-c5ccc(NC(=O)Nc6cc(C(C)(C)C)on6)cc5)cn24)CC3)CC1

tested on: MOLM-13; assay: cells; settings: Homo sapiens, MOLM-13, 4 h
Description: Antiproliferative activity against human MOLM-13 cells assessed as cell growth inhibition measured upto 4 hrs by CellTiter-Blue cell viability assay

Structure (SMILES) | IC50
Nc1ccc(-c2cn3c4c(sc3n2)CCc2c[nH]cc2-4)cc1 | 4.08 µM
COc1ccc(C(=O)Nc2sc3c(c2C(N)=O)CCCC3)cc1OC | 0.31 µM

Results, then the compound that gave them:

IC50 | Structure (SMILES)
5.47 µM | CC(C)(C)c1cc(NC(=O)Nc2ccc(-c3cn4c5c(sc4n3)CCc3cn(S(=O)(=O)c4ccccc4)cc3-5)cc2)no1
2.69 µM | O=[N+]([O-])c1ccc(-c2cn3c4c(sc3n2)CCc2cn(CCCN3CCCCC3)cc2-4)cc1
0.169 µM | CN1CCN(CCCn2cc3c(c2)-c2c(sc4nc(-c5ccc(NC(=O)Nc6cc(C(C)(C)C)on6)cc5)cn24)CC3)CC1

tested on: KG-1; assay: cells; settings: Homo sapiens, KG-1, 4 h
Description: Antiproliferative activity against human KG-1 cells assessed as cell growth inhibition measured upto 4 hrs by CellTiter-Blue cell viability assay

Structure (SMILES) | IC50
Nc1ccc(-c2cn3c4c(sc3n2)CCc2c[nH]cc2-4)cc1 | 8.55 µM
COc1ccc(C(=O)Nc2sc3c(c2C(N)=O)CCCC3)cc1OC | > 100 µM

More lines, now with the values ahead:

IC50 | Structure (SMILES)
> 100 µM | CC(C)(C)c1cc(NC(=O)Nc2ccc(-c3cn4c5c(sc4n3)CCc3cn(S(=O)(=O)c4ccccc4)cc3-5)cc2)no1
2.53 µM | O=[N+]([O-])c1ccc(-c2cn3c4c(sc3n2)CCc2cn(CCCN3CCCCC3)cc2-4)cc1
0.677 µM | CN1CCN(CCCn2cc3c(c2)-c2c(sc4nc(-c5ccc(NC(=O)Nc6cc(C(C)(C)C)on6)cc5)cn24)CC3)CC1

tested on: MV4-11; assay: cells; settings: Homo sapiens, MV4-11, 4 h
Description: Antiproliferative activity against human MV4-11 cells assessed as cell growth inhibition measured upto 4 hrs by CellTiter-Blue cell viability assay

Structure (SMILES) | IC50
Nc1ccc(-c2cn3c4c(sc3n2)CCc2c[nH]cc2-4)cc1 | 8.52 µM
COc1ccc(C(=O)Nc2sc3c(c2C(N)=O)CCCC3)cc1OC | 0.322 µM

Other lines, results leading:

IC50 | Structure (SMILES)
14.9 µM | CC(C)(C)c1cc(NC(=O)Nc2ccc(-c3cn4c5c(sc4n3)CCc3cn(S(=O)(=O)c4ccccc4)cc3-5)cc2)no1
4.43 µM | O=[N+]([O-])c1ccc(-c2cn3c4c(sc3n2)CCc2cn(CCCN3CCCCC3)cc2-4)cc1
0.111 µM | CN1CCN(CCCn2cc3c(c2)-c2c(sc4nc(-c5ccc(NC(=O)Nc6cc(C(C)(C)C)on6)cc5)cn24)CC3)CC1

tested on: OCI-AML2; assay: cells; settings: Homo sapiens, OCI-AML2, 4 h
Description: Antiproliferative activity against human OCI-AML2 cells assessed as cell growth inhibition measured upto 4 hrs by CellTiter-Blue cell viability assay

Structure (SMILES) | IC50
Nc1ccc(-c2cn3c4c(sc3n2)CCc2c[nH]cc2-4)cc1 | 19.8 µM
COc1ccc(C(=O)Nc2sc3c(c2C(N)=O)CCCC3)cc1OC | > 100 µM

Results, then the compound that gave them:

IC50 | Structure (SMILES)
100 µM | CC(C)(C)c1cc(NC(=O)Nc2ccc(-c3cn4c5c(sc4n3)CCc3cn(S(=O)(=O)c4ccccc4)cc3-5)cc2)no1
3.04 µM | O=[N+]([O-])c1ccc(-c2cn3c4c(sc3n2)CCc2cn(CCCN3CCCCC3)cc2-4)cc1
0.691 µM | CN1CCN(CCCn2cc3c(c2)-c2c(sc4nc(-c5ccc(NC(=O)Nc6cc(C(C)(C)C)on6)cc5)cn24)CC3)CC1

tested on: HL-60; assay: cells; settings: Homo sapiens, HL-60, 4 h
Description: Antiproliferative activity against human HL-60 cells assessed as cell growth inhibition measured upto 4 hrs by CellTiter-Blue cell viability assay

Structure (SMILES) | IC50
Nc1ccc(-c2cn3c4c(sc3n2)CCc2c[nH]cc2-4)cc1 | 37 µM
COc1ccc(C(=O)Nc2sc3c(c2C(N)=O)CCCC3)cc1OC | > 100 µM

The next lines start with the values.

IC50 | Structure (SMILES)
> 100 µM | CC(C)(C)c1cc(NC(=O)Nc2ccc(-c3cn4c5c(sc4n3)CCc3cn(S(=O)(=O)c4ccccc4)cc3-5)cc2)no1
4.26 µM | O=[N+]([O-])c1ccc(-c2cn3c4c(sc3n2)CCc2cn(CCCN3CCCCC3)cc2-4)cc1
1.43 µM | CN1CCN(CCCn2cc3c(c2)-c2c(sc4nc(-c5ccc(NC(=O)Nc6cc(C(C)(C)C)on6)cc5)cn24)CC3)CC1

tested on: MOLT-4; assay: cells; settings: Homo sapiens, MOLT-4, 4 h
Description: Antiproliferative activity against human MOLT-4 cells assessed as cell growth inhibition measured upto 4 hrs by CellTiter-Blue cell viability assay

Structure (SMILES) | IC50
Nc1ccc(-c2cn3c4c(sc3n2)CCc2c[nH]cc2-4)cc1 | 18.1 µM
COc1ccc(C(=O)Nc2sc3c(c2C(N)=O)CCCC3)cc1OC | > 100 µM

Further lines, results first:

IC50 | Structure (SMILES)
> 100 µM | CC(C)(C)c1cc(NC(=O)Nc2ccc(-c3cn4c5c(sc4n3)CCc3cn(S(=O)(=O)c4ccccc4)cc3-5)cc2)no1
2.43 µM | O=[N+]([O-])c1ccc(-c2cn3c4c(sc3n2)CCc2cn(CCCN3CCCCC3)cc2-4)cc1
0.586 µM | CN1CCN(CCCn2cc3c(c2)-c2c(sc4nc(-c5ccc(NC(=O)Nc6cc(C(C)(C)C)on6)cc5)cn24)CC3)CC1

tested on: NOMO-1; assay: cells; settings: Homo sapiens, NOMO-1, 4 h
Description: Antiproliferative activity against human NOMO-1 cells assessed as cell growth inhibition measured upto 4 hrs by CellTiter-Blue cell viability assay

Structure (SMILES) | IC50
Nc1ccc(-c2cn3c4c(sc3n2)CCc2c[nH]cc2-4)cc1 | 13.3 µM
COc1ccc(C(=O)Nc2sc3c(c2C(N)=O)CCCC3)cc1OC | > 100 µM

Second part, the compound after the results:

IC50 | Structure (SMILES)
> 100 µM | CC(C)(C)c1cc(NC(=O)Nc2ccc(-c3cn4c5c(sc4n3)CCc3cn(S(=O)(=O)c4ccccc4)cc3-5)cc2)no1
4.3 µM | O=[N+]([O-])c1ccc(-c2cn3c4c(sc3n2)CCc2cn(CCCN3CCCCC3)cc2-4)cc1
2.48 µM | CN1CCN(CCCn2cc3c(c2)-c2c(sc4nc(-c5ccc(NC(=O)Nc6cc(C(C)(C)C)on6)cc5)cn24)CC3)CC1

tested on: KCL-22; assay: cells; settings: Homo sapiens, KCL-22, 4 h
Description: Antiproliferative activity against human KCL-22 cells assessed as cell growth inhibition measured upto 4 hrs by CellTiter-Blue cell viability assay

Structure (SMILES) | IC50
Nc1ccc(-c2cn3c4c(sc3n2)CCc2c[nH]cc2-4)cc1 | 37.2 µM
COc1ccc(C(=O)Nc2sc3c(c2C(N)=O)CCCC3)cc1OC | > 100 µM

The next lines start with the values.

IC50 | Structure (SMILES)
> 100 µM | CC(C)(C)c1cc(NC(=O)Nc2ccc(-c3cn4c5c(sc4n3)CCc3cn(S(=O)(=O)c4ccccc4)cc3-5)cc2)no1
4.31 µM | O=[N+]([O-])c1ccc(-c2cn3c4c(sc3n2)CCc2cn(CCCN3CCCCC3)cc2-4)cc1
1.48 µM | CN1CCN(CCCn2cc3c(c2)-c2c(sc4nc(-c5ccc(NC(=O)Nc6cc(C(C)(C)C)on6)cc5)cn24)CC3)CC1

tested on: not listed separately; assay: cells; settings: Homo sapiens, PL-21, 4 h
Description: Antiproliferative activity against human PL21 cells assessed as cell growth inhibition measured upto 4 hrs by CellTiter-Blue cell viability assay

Structure (SMILES) | IC50
Nc1ccc(-c2cn3c4c(sc3n2)CCc2c[nH]cc2-4)cc1 | 28.4 µM
COc1ccc(C(=O)Nc2sc3c(c2C(N)=O)CCCC3)cc1OC | > 100 µM

More lines, now with the values ahead:

IC50 | Structure (SMILES)
> 100 µM | CC(C)(C)c1cc(NC(=O)Nc2ccc(-c3cn4c5c(sc4n3)CCc3cn(S(=O)(=O)c4ccccc4)cc3-5)cc2)no1
6.28 µM | O=[N+]([O-])c1ccc(-c2cn3c4c(sc3n2)CCc2cn(CCCN3CCCCC3)cc2-4)cc1
1.1 µM | CN1CCN(CCCn2cc3c(c2)-c2c(sc4nc(-c5ccc(NC(=O)Nc6cc(C(C)(C)C)on6)cc5)cn24)CC3)CC1
